Experimental data published in paper PMC7887208 (2021).

Legend:
[1] = test system: d(CGTACG)2 ("CG") (DNA, duplex) CGTACG; assay: 1H and 31P NMR titration; settings: 0.1 M NaCl; 10 mM sodium phosphate pH 7.0, 15 °C; partial intercalation
[2] = test system: d(AAGAATTCTT)2 ("AATT") (DNA, duplex) AAGAATTCTT; assay: 1H and 31P NMR titration; settings: 0.1 M NaCl; 10 mM sodium phosphate pH 7.0, 15 °C; external interaction, no intercalation
[3] = test system: Pu22T14T23 (DNA, G4) TGAGGGTGGGTAGGGTGGGTAA; assay: 1H NMR titration and NOESY; settings: 70 mM KCl
[4] = test system: d(TTAGGGT)4 (DNA, G4) TTAGGGT; assay: 1H NMR titration and NOESY; settings: 150 mM KCl; 25 mM K-phosphate pH 6.7, 1 mM EDTA, 25 °C; sites A3-G4 and over G6
[5] = test system: Pu22T14T23 (DNA, G4) TGAGGGTGGGTAGGGTGGGTAA; assay: ligand fluorescence titration, EQUISPEC fit; settings: 3 µM ligand, 1:1 model
[6] = test system: d(TTAGGGT)4 (DNA, G4) TTAGGGT; assay: ligand fluorescence titration, EQUISPEC fit; settings: 3 µM ligand, 1:1 model
[7] = test system: Pu22T14T23 (DNA, G4) TGAGGGTGGGTAGGGTGGGTAA; assay: reverse fluorescence titration (DNA titrated with ligand), EQUISPEC fit; settings: 70 mM KCl; 25 mM phosphate pH 6.9, 20 °C; 2.4 µM DNA; overall constant of 1:2 model
[8] = 70 mM KCl, 25 mM phosphate pH 6.9, 20 °C

NC(=O)Cn1ccc2ccc(-c3ccc(CN4CCCC4)cc3)nc21
binding [1]: weak
binding [2]: weak
binding ([3]; 25 mM phosphate pH 6.9, 25 °C, stacks on 5' and 3' end tetrads): yes
binding [4]: yes
Kb [5, 8]: ~ 10^6.1 M^-1
binding ([5]; PBS (Na+; composition not given), PBS, 20 °C, stated similar to K+ buffer): yes
Kb [6, 8]: ~ 10^6.1 M^-1
Kb ([6]; PBS (Na+; composition not given), PBS, 20 °C, printed as d(TTAGGG)4): ~ 10^5.1 M^-1
overall Kb [7]: 10^12.8 M^-2

C[C@]1(c2nc3c(C(N)=O)cccc3[nH]2)CCCN1
binding ([3]; 25 mM KH2PO4 pH 6.9, 25 °C, no shift change, no NOE): no
